Experimental data: the supplement of paper PMC10307832

How the values were obtained:
Assay in all cases: relative viability (nuclei count vs DMSO), 5 days (fraction); higher = more cells survive
XMD13-2 + Palbociclib = compound: C1CC1C(=O)NC2=NNC3=C2C=CC(=C3)C4=CC(=CC=C4)C(=O)NC5CC5 [XMD13-2] + CC(=O)c1c(C)c2cnc(Nc3ccc(N4CCNCC4)cn3)nc2n(C2CCCC2)c1=O [Palbociclib] (partner 0.5 µM)
In short: (§1)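 Relative viability equals treated-well nuclei counts divided by vehicle-well nuclei counts. Counts came from 4× images of lung cancer cell lines grown in 1536-well plates for 5 days after pin-tool dosing on the day after seeding. Dosing used one drug alone or a fixed anchor-drug dose plus five library-drug doses (not always all listed) in √10 steps, and values are medians of duplicate plates.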

Dasatinib + Alpelisib = compound: Cc1nc(Nc2ncc(C(=O)Nc3c(C)cccc3Cl)s2)cc(N2CCN(CCO)CC2)n1 [Dasatinib] + Cc1nc(NC(=O)N2CCC[C@H]2C(N)=O)sc1-c1ccnc(C(C)(C)C(F)(F)F)c1 [Alpelisib] (partner 2 µM)
In short: as §1

Dasatinib + Tozasertib = compound: Cc1nc(Nc2ncc(C(=O)Nc3c(C)cccc3Cl)s2)cc(N2CCN(CCO)CC2)n1 [Dasatinib] + Cc1cc(Nc2cc(N3CCN(C)CC3)nc(Sc3ccc(NC(=O)C4CC4)cc3)n2)n[nH]1 [Tozasertib] (partner 0.1 µM)
In short: as §1

XMD13-2 + Lapatinib = compound: C1CC1C(=O)NC2=NNC3=C2C=CC(=C3)C4=CC(=CC=C4)C(=O)NC5CC5 [XMD13-2] + CS(=O)(=O)CCNCc1ccc(-c2ccc3ncnc(Nc4ccc(OCc5cccc(F)c5)c(Cl)c4)c3c2)o1 [Lapatinib] (partner 2 µM)
In short: as §1

Cell Line | relative viability (XMD13-2 + Palbociclib; first compound 0.05 µM) | relative viability (XMD13-2 + Palbociclib; first compound 0.1581 µM) | relative viability (XMD13-2 + Palbociclib; first compound 0.5 µM) | relative viability (XMD13-2 + Palbociclib; first compound 1.581 µM) | relative viability (XMD13-2 + Palbociclib; first compound 5 µM) | relative viability (Dasatinib + Alpelisib; first compound 0.005 µM) | relative viability (Dasatinib + Alpelisib; first compound 0.01581 µM) | relative viability (Dasatinib + Alpelisib; first compound 0.05 µM) | relative viability (Dasatinib + Alpelisib; first compound 0.1581 µM) | relative viability (Dasatinib + Alpelisib; first compound 0.5 µM) | relative viability (Dasatinib + Tozasertib; first compound 0.005 µM) | relative viability (Dasatinib + Tozasertib; first compound 0.01581 µM) | relative viability (Dasatinib + Tozasertib; first compound 0.05 µM) | relative viability (Dasatinib + Tozasertib; first compound 0.1581 µM) | relative viability (Dasatinib + Tozasertib; first compound 0.5 µM) | relative viability (XMD13-2 + Lapatinib; first compound 0.05 µM) | relative viability (XMD13-2 + Lapatinib; first compound 0.1581 µM) | relative viability (XMD13-2 + Lapatinib; first compound 0.5 µM) | relative viability (XMD13-2 + Lapatinib; first compound 1.581 µM) | relative viability (XMD13-2 + Lapatinib; first compound 5 µM)
NCI-H358 | 0.139 | 0.121 | 0.133 | 0.117 | 0.129 | 0.726 | 0.585 | 0.458 | 0.24 | 0.204 | 0.0888 | 0.0863 | 0.101 | 0.084 | 0.0689 | 0.566 | 0.463 | 0.471 | 0.404 | 0.322
NCI-H1792 | 0.773 | 0.691 | 0.686 | 0.765 | 0.687 | 0.73 | 0.431 | 0.532 | 0.389 | 0.153 | – | – | – | – | – | 1.1 | 0.873 | 0.951 | 0.777 | 1.06
Calu-6 | – | – | – | – | – | 0.801 | 0.665 | 0.731 | 0.613 | 0.576 | – | – | – | – | – | 1.18 | 0.93 | 1.11 | 0.983 | 0.736
LCLC-103H | 0.485 | 0.44 | 0.466 | 0.477 | 0.481 | 0.978 | 1.06 | 0.818 | 0.647 | 0.328 | 0.485 | 0.461 | 0.453 | 0.3 | 0.129 | – | – | – | – | –
NCI-H1623 | – | – | – | – | – | – | – | – | – | – | 0.447 | 0.329 | 0.442 | 0.351 | 0.363 | – | – | – | – | –
NCI-H1299 | – | – | – | – | – | 1.07 | 1.13 | 1.08 | 0.924 | 0.288 | – | – | – | – | – | 0.908 | 1.03 | 0.997 | 0.958 | 0.939
ChaGo-K-1 | 0.923 | 0.897 | 0.958 | 0.92 | 0.795 | – | – | – | – | – | 0.23 | 0.203 | 0.207 | 0.21 | 0.186 | – | – | – | – | –
NCI-H1703 | – | – | – | – | – | 0.229 | 0.179 | 0.184 | 0.155 | 0.157 | – | – | – | – | – | 1.38 | 1.4 | 1.17 | 0.842 | 0.72
NCI-H522 | 0.931 | 0.873 | 1.22 | 0.875 | 0.885 | – | – | – | – | – | 0.568 | 0.483 | 0.539 | 0.466 | 0.437 | – | – | – | – | –
IA-LM | – | – | – | – | – | 0.969 | 0.71 | 0.882 | 0.84 | 0.62 | – | – | – | – | – | 0.812 | 0.869 | 0.751 | 0.682 | 0.47
SW 900 | 0.592 | 0.382 | 0.669 | 0.549 | 0.589 | – | – | – | – | – | 0.609 | 0.564 | 0.607 | 0.46 | 0.359 | – | – | – | – | –
NCI-H1563 | – | – | – | – | – | 0.742 | 0.615 | 0.662 | 0.608 | 0.604 | – | – | – | – | – | 1.06 | 0.88 | 0.967 | 0.839 | 1.08
NCI-H441 | 0.239 | 0.224 | 0.219 | 0.225 | 0.28 | 0.878 | 0.874 | 0.574 | 0.355 | 0.218 | 0.594 | 0.539 | 0.625 | 0.467 | 0.375 | – | – | – | – | –
NCI-H2342 | 0.517 | 0.522 | 0.546 | 0.488 | 0.502 | – | – | – | – | – | 0.524 | 0.427 | 0.333 | 0.356 | 0.218 | – | – | – | – | –
